Source: patent US10239838B2, “Heteroaryl orexin receptor antagonists” (Merck Sharp & Dohme Corp., priority 2014, dated 2019)

Assays:
[1] = target: hOX1R (Homo sapiens, UniProt O43613); assay: FLIPR Ca2+ Flux Assay, orexin-1 receptor; format: cell-based; settings: CHO cells expressing orexin-1 receptor; agonist 70 pM Ala-6,12 orexin-A
[2] = target: human orexin-2 receptor (Homo sapiens (Human), UniProt O43614); assay: FLIPR Ca2+ Flux Assay, orexin-2 receptor; format: cell-based; settings: CHO cells expressing the human orexin-2 receptor; agonist 70 pM Ala-6,12 orexin-A; read-out: hOX2R FLIPR IC50
Chain of human orexin-2 receptor (O43614 whole entry): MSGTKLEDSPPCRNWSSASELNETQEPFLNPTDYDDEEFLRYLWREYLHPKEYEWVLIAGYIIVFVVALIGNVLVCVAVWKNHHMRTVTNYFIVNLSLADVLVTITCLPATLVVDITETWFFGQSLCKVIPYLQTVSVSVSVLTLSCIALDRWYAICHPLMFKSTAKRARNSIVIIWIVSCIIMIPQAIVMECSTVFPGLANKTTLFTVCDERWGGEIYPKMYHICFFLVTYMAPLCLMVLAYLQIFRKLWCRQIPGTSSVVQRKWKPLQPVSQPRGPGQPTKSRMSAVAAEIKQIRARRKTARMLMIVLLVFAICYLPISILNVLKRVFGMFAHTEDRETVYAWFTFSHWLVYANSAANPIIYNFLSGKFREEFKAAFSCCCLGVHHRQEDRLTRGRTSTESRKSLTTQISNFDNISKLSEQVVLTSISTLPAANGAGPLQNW
Protocol: In a typical experiment the OX1 and OX2 receptor antagonistic activity of the compounds of the present invention was determined in accordance with the following experimental method. For intracellular calcium measurements, Chinese hamster ovary (CHO) cells expressing the rat orexin-1 receptor or the human orexin-2 receptor, are grown in Iscove's modified DMEM containing 2 mM L-glutamine, […], 1% hypoxanthine-thymidine supplement, 100 U/ml penicillin, 100 μg/ml streptomycin and 10% heat-inactivated fetal calf serum (FCS). The cells are seeded at 20,000 cells/well into Becton-Dickinson black 384-well clear bottom sterile plates coated with poly-D-lysine. All reagents were from GIBCO-Invitrogen Corp. The seeded plates are incubated overnight at 37° C. and 5% CO2. Ala-6,12 human orexin-A as the agonist is prepared as a 1 mM stock solution in 1% bovine serum albumin (BSA) and diluted in assay buffer (HBSS containing 20 mM HEPES, 0.1% BSA and 2.5 mM probenecid, pH7.4) for use in the assay at a final concentration of 70 pM. Test compounds are prepared as 10 mM stock solution in DMSO, then diluted in 384-well plates, first in DMSO, then assay buffer. On the day of the assay, cells are washed 3 times with 100 μl assay buffer and then incubated for 60 min (37° C., 5% CO2) in 60 μl assay buffer containing 1 μM Fluo-4 AM ester, 0.02% pluronic acid, and 1% BSA. The dye loading solution is then aspirated and cells are washed 3 times with 100 μl assay buffer. 30 μl of that same buffer is left in each well. Within the Fluorescent Imaging Plate Reader (FLIPR, Molecular Devices), test compounds are added to the plate in a volume of 25 μl, incubated for 5 min and finally 25 μl of agonist is added. Fluorescence is measured for each well at 1 second intervals for 5 minutes and the height of each fluorescence peak is compared to the height of the fluorescence peak induced by 70 pM Ala-6,12 orexin-A with buffer in place of antagonist. […] Alternatively, compound potency can be assessed by a radioligand binding assay (described in Bergman et. al. Bioorg. Med. Chem. Lett. 2008, 18, 1425-1430) in which the inhibition constant (Ki) is determined in membranes prepared from CHO cells expressing either the OX1 or OX2 receptor. The intrinsic orexin receptor antagonist activity of a compound which may be used in the present invention may be determined by these assays.

SMILES	IC50 [1] [nM]	IC50 [2] [nM]
CCN(CCc1cccc(C(C)(C)O)n1)C(=O)c1cccnc1OCC(F)(F)F [Example 10, N-ethyl-N-{2-[6-(1-hydroxy-1-methylethyl)pyridin-2-yl]ethyl}-2-(2,2,2-trifluoroethoxy)pyridine-3-carboxamide]	> 10000	69
CCN(CCc1cccc(C(C)(C)O)n1)C(=O)c1ccccc1CC(F)(F)F [Example 18, N-ethyl-N-(2-(6-(2-hydroxypropan-2-yl)pyridin-2-yl)ethyl)-2-(2,2,2-trifluoroethyl)benzamide]	> 10000	–
CCN(CCc1cccc(C(C)(C)O)n1)C(=O)c1ccccc1-n1nccn1 [Example 4, N-Ethyl-N-{2-[6-(1-hydroxy-1-methylethyl)pyridin-2-yl]ethyl}-2-(2H-1,2,3-triazol-2-yl)benzamide]	–	15
CCN(CCc1cc(C)c(C(C)(C)O)cn1)C(=O)c1ccccc1-n1nccn1 [Example 47, N-Ethyl-N-(2-(5-(2-hydroxypropan-2-yl)-4-methylpyridin-2-yl)ethyl)-2-(2H-1,2,3-triazol-2-yl)benzamide]	1560	16
CCN(CCc1cccc(C(C)(C)O)n1)C(=O)c1ccccc1C1CC1(F)F (stereo not shown) [Example 31, 2-(2,2-difluorocyclopropyl)-N-ethyl-N-(2-(6-(2-hydroxypropan-2-yl)pyridin-2-yl)ethyl)benzamide]	9040	14
CCN(CCc1cccc(C(C)(C)O)n1)C(=O)c1ccccc1C1CC1 [Example 15, 2-cyclopropyl-N-ethyl-N-{2-[6-(1-hydroxy-1-methylethyl)pyridin-2-yl]ethyl}benzamide]	> 10000	43
CCCc1ccccc1C(=O)N(CC)CCc1ccc(C(C)(C)O)cn1 [Example 52, N-ethyl-N-{2-[5-(1-hydroxy-1-methylethyl)pyridin-2-yl]ethyl}-2-propylbenzamide]	> 10000	–
CCN(CCc1ncc(C(C)(C)O)cn1)C(=O)c1ccccc1-n1nccn1 [Example 41, N-Ethyl-N-(2-(5-(2-hydroxypropan-2-yl)pyrimidin-2-yl)ethyl)-2-(2H-1,2,3-triazol-2-yl)benzamide]	3230	86
CCN(CCc1cccc(C(C)(C)O)n1)C(=O)c1cccnc1OCC(F)F [Example 9, 2-(2,2-difluoroethoxy)-N-ethyl-N-{2-[6-(1-hydroxy-1-methylethyl)pyridin-2-yl]ethyl}pyridine-3-carboxamide]	> 10000	95
CCN(CCc1cccc(C(C)(C)O)n1)C(=O)c1ccccc1N1CCCC1 [Example 28, N-ethyl-N-(2-(6-(2-hydroxypropan-2-yl)pyridin-2-yl)ethyl)-2-(pyrrolidin-1-yl)benzamide]	> 10000	88
CCN(CCc1ccc(C(C)(C)O)cn1)C(=O)c1ccccc1C1CC1 [Example 60, 2-cyclopropyl-N-ethyl-N-{2-[5-(1-hydroxy-1-methylethyl)pyridin-2-yl]ethyl}benzamide]	> 10000	244
CCN(CCc1cccc(C(C)(C)O)n1)C(=O)c1ccccc1-n1cccn1 [Example 12, N-ethyl-N-{2-[6-(1-hydroxy-1-methylethyl)pyridin-2-yl]ethyl}-2-(1H-pyrazol-1-yl)benzamide]	> 10000	66
CCN(CCc1ccc(C(C)(C)O)cn1)C(=O)c1ccc(OC)nc1C1CC1 [Example 59, 2-cyclopropyl-N-ethyl-N-{2-[5-(1-hydroxy-1-methylethyl)pyridin-2-yl]ethyl}-6-methoxypyridine-3-carboxamide]	> 10000	55
CCN(CCc1cccc(C(C)(C)O)n1)C(=O)c1ccc(F)cc1-n1nccn1 [Example 13, N-ethyl-4-fluoro-N-{2-[6-(1-hydroxy-1-methylethyl)pyridin-2-yl]ethyl}-2-(2H-1,2,3-triazol-2-yl)benzamide]	> 10000	8
CCN(CCc1cccc(C(C)(C)O)n1)C(=O)c1ncccc1-c1ccccc1 [Example 26, N-ethyl-N-(2-(6-(2-hydroxypropan-2-yl)pyridin-2-yl)ethyl)-3-phenylpicolinamide]	> 10000	452
CCN(CCc1ccc(C(C)(C)O)cn1)C(=O)c1ccccc1-n1ncnn1 [Example 55, N-ethyl-N-{2-[5-(1-hydroxy-1-methylethyl)pyridin-2-yl]ethyl}-2-(2H-tetrazol-2-yl)benzamide]	> 10000	388
CCN(CCc1ccc(C(C)(C)O)cn1)C(=O)c1cccnc1-n1cccn1 [Example 49, N-Ethyl-N-{2-[5-(1-hydroxy-1-methylethyl)pyridin-2-yl]ethyl}-2-(1H-pyrazol-1-yl)pyridine-3-carboxamide]	> 10000	252
CCOc1ccccc1C(=O)N(CC)CCc1ccc(C(C)(C)O)cn1 [Example 57, 2-ethoxy-N-ethyl-N-{2-[5-(1-hydroxy-1-methylethyl)pyridin-2-yl]ethyl}benzamide]	> 10000	547
CCN(CCc1cccc(C(C)(C)O)n1)C(=O)c1cccnc1OC(C)C [Example 5, N-Ethyl-N-{2-[6-(1-hydroxy-1-methylethyl)pyridin-2-yl]ethyl}-2-(1-methylethoxy)pyridine-3-carboxamide]	> 10000	133
CCN(CCc1cccc(C(C)(C)O)n1)C(=O)c1ccc(OC)nc1C1CC1 [Example 19, 2-cyclopropyl-N-ethyl-N-(2-(6-(2-hydroxypropan-2-yl)pyridin-2-yl)ethyl)-6-methoxynicotinamide]	–	16
CCN(CCc1ccnc(C(C)(C)O)c1)C(=O)c1ccccc1-n1nccn1 [Example 37, N-Ethyl-N-{2-[2-(1-hydroxy-1-methylethyl)pyridin-4-yl]ethyl}-2-(2H-1,2,3-triazol-2-yl)benzamide]	> 10000	124
CCN(CCc1ccc(C(C)(C)O)cn1)C(=O)c1ccccc1-n1cccn1 [Example 53, N-ethyl-N-{2-[5-(1-hydroxy-1-methylethyl)pyridin-2-yl]ethyl}-2-(1H-pyrazol-1-yl)benzamide]	> 10000	183
CCN(CCc1cccc(C(C)(C)O)n1)C(=O)c1ccccc1CC(F)F [Example 23, 2-(2,2-difluoroethyl)-N-ethyl-N-(2-(6-(2-hydroxypropan-2-yl)pyridin-2-yl)ethyl)benzamide]	> 10000	142
CCN(CCc1cccc(C(C)(C)O)n1)C(=O)c1ccccc1-n1ncnn1 [Example 29, N-ethyl-N-(2-(6-(2-hydroxypropan-2-yl)pyridin-2-yl)ethyl)-2-(2H-tetrazol-2-yl)benzamide]	> 10000	146
CCN(CCc1ccc(C)c(C(C)(C)O)n1)C(=O)c1ccccc1-n1nccn1 [Example 48, N-Ethyl-N-(2-(6-(2-hydroxypropan-2-yl)-5-methylpyridin-2-yl)ethyl)-2-(2H-1,2,3-triazol-2-yl)benzamide]	791	6
CCN(CCc1ccnc(C(C)(C)O)n1)C(=O)c1ccccc1-n1nccn1 [Example 40, N-Ethyl-N-(2-(2-(2-hydroxypropan-2-yl)pyrimidin-4-yl)ethyl)-2-(2H-1,2,3-triazol-2-yl)benzamide]	> 10000	74
CCN(CCc1ccc(C(C)(C)O)cn1)C(=O)c1ccc(F)cc1-n1nccn1 [Example 61, N-ethyl-4-fluoro-N-{2-[5-(1-hydroxy-1-methylethyl)pyridin-2-yl]ethyl}-2-(2H-1,2,3-triazol-2-yl)benzamide]	> 10000	26
CCN(CCc1ccc(C(C)(C)O)cn1)C(=O)c1ccccc1N1CCCC1 [Example 51, N-ethyl-N-{2-[5-(1-hydroxy-1-methylethyl)pyridin-2-yl]ethyl}-2-pyrrolidin-1-ylbenzamide]	> 10000	76
CCN(CCc1ccc(C(C)(C)O)cn1)C(=O)c1ccccc1-n1nccn1 [Example 35, N-Ethyl-N-{2-[5-(1-hydroxy-1-methylethyl)pyridin-2-yl]ethyl}-2-(2H-1,2,3-triazol-2-yl)benzamide]	> 10000	50
CCN(CCc1cccc(C(C)(C)O)n1)C(=O)c1ccccc1C1CCC1 [Example 25, 2-cyclobutyl-N-ethyl-N-(2-(6-(2-hydroxypropan-2-yl)pyridin-2-yl)ethyl)benzamide]	–	34
